# Data reported in ChEMBL document CHEMBL1131517, “4,4,14 alpha-trimethyl 9 beta,19-cyclo-5 alpha-26-homocholesta-24,26-dien-3 beta-ol: a potent mechanism-based inactivator of delta 24(25)- to delta 25(27)-sterol methyl transferase” (Bioorg Med Chem Lett, 1998).
# Experiments:
# Prototheca wickerhamii = assay: Compound was tested for inactivation of sterol methyl transferase( SMT) enzyme in Prototheca wickerhamii
# [1] = Compound was tested for inactivation of sterol methyl transferase (SMT) enzyme in Prototheca wickerhamii
structure (smiles),measurement,setting,value
C=C/C(C)=C/CC[C@@H](C)C1CC[C@@]2(C)C3CCC4C(C)(C)C(O)CCC45CC35CCC12C (some centres not stated),K inact,Prototheca wickerhamii,0.3 min⁻¹
same,Ki,[1],30 µM
